Read-outs that look alike come from different tables or passages of the source.
Key:
[1] = molecular target: full-length human HPK1 (MAP4K1) (Homo sapiens (Human), UniProt Q92918); assay: HPK1 Kinase Assay (Biochemical Assay), ADP-Glo; settings: GST-HPK1 3.2 nM, 10 μM ATP, MBP substrate, read-out: HPK1 enzymatic IC50
Procedure, shortened: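 ADP-Glo luminescence after a 120-min kinase reaction gave percent inhibition and IC50. The enzyme was Sf21-expressed N-terminal GST full-length human HPK1 at 3.2 nM in HEPES pH 7.5 buffer with MgCl2, DTT, Brij-35 and BSA.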

[2] = molecular target: HPK1 (SLP76 phosphorylation at Ser376 in Jurkat and EL-4 cells) (Homo sapiens, UniProt Q92918); type: cell-based
Procedure, shortened: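 Phospho-SLP76 (Ser376) in lysates measured by AlphaLISA for human Jurkat and by 19 h HTRF for mouse EL-4, giving % inhibition and IC50. Compounds applied 60 min before αCD3/αCD28 bead stimulation at 37 °C, lasting 15 min (Jurkat) or 30 min (EL-4).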

[3] = αCD3/αCD28 Dynabeads stimulated cells, pSLP76 (Ser376) detection; read-out: HPK1 pSLP76 IC50
[4] = read-out: HPK1 pSLP76 IC50; αCD3/αCD28 Dynabeads stimulated cells, pSLP76 (Ser376) detection

Sequence of full-length human HPK1 (MAP4K1) (Q92918 whole entry): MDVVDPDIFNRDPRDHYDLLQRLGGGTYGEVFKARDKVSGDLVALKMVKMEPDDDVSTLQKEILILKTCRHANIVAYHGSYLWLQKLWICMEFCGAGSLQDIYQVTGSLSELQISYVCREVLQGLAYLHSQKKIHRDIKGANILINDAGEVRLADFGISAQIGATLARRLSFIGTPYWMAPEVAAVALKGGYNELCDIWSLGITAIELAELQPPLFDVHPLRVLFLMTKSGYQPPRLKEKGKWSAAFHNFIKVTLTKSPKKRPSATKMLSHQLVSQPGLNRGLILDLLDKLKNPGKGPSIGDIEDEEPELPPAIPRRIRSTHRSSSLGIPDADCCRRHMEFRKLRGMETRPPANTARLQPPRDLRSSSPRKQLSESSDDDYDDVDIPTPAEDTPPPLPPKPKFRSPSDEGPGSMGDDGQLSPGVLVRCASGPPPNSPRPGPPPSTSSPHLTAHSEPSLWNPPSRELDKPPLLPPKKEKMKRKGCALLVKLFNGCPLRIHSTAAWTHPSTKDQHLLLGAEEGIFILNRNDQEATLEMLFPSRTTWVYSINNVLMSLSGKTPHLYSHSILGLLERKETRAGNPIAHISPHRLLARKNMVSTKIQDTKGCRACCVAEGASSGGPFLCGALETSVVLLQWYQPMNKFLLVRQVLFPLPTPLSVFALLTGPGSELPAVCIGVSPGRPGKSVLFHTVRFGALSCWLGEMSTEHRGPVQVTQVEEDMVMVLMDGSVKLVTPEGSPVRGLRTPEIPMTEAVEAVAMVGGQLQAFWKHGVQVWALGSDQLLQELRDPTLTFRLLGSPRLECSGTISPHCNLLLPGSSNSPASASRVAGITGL
Sequence of HPK1 (SLP76 phosphorylation at Ser376 in Jurkat and EL-4 cells) (Q92918 whole entry, looked up): as the sequence (Q92918 whole entry) above

SMILES	IC50 [1] [nM]	IC50 [2, 3] [nM]	IC50 [2, 4] [nM]
Cc1cc(Nc2ncc3c(n2)CN(c2cnc4c(c2C)NCCO4)CC3)ccc1NC(=O)CN1CCC1 [Example 3, 2-(azetidin-1-yl)-N-{2-methyl-4-[(7-{8-methyl-1H,2H,3H-pyrido[2,3-b][1,4]oxazin-7-yl}-5H,6H,7H,8H-pyrido[3,4-d]pyrimidin-2-yl)amino]phenyl}acetamide]	< 100	< 500	–
Cc1c(N2CCc3cnc(Nc4ccc(NC(=O)CN5CCOCC5)cc4)nc3C2)cnc2c1NCCO2 [Example 12, N-{4-[(7-{8-methyl-1H,2H,3H-pyrido[2,3-b][1,4]oxazin-7-yl}-5H,6H,7H,8H-pyrido[3,4-d]pyrimidin-2-yl)amino]phenyl}-2-(morpholin-4-yl)acetamide]	< 100	< 500	–
Cc1c(N2CCc3cnc(Nc4cnc5c(c4)CN(CC(F)(F)F)CC5)nc3C2)cnc2c1NCCO2 [Example 106, 7-(8-methyl-2,3-dihydro-1H-pyrido[2,3-b][1,4]oxazin-7-yl)-N-(6-(2,2,2-trifluoroethyl)-5,6,7,8-tetrahydro-1,6-naphthyridin-3-yl)-5,6,7,8-tetrahydropyrido[3,4-d]pyrimidin-2-amine]	< 100	> 1000	–
CC(=O)Nc1ccc(Nc2ncc3c(n2)CN(c2cnc4c(c2C)NCCO4)CC3)cn1 [Example 73, N-(5-((7-(8-methyl-2,3-dihydro-1H-pyrido[2,3-b][1,4]oxazin-7-yl)-5,6,7,8-tetrahydropyrido[3,4-d]pyrimidin-2-yl)amino)pyridin-2-yl)acetamide]	< 100	500 to 1000	–
Cc1cc(Nc2cc3c(cn2)CCN(c2cnc4c(c2Cl)NCCO4)C3)ccc1NC(=O)CN1CCOCC1 [Example 122, N-(4-((6-(8-chloro-2,3-dihydro-1H-pyrido[2,3-b][1,4]oxazin-7-yl)-5,6,7,8-tetrahydro-2,6-naphthyridin-3-yl)amino)-2-methylphenyl)-2-morpholinoacetamide]	< 100	500 to 1000	–
Cc1c(N2CCc3cnc(Nc4ccc(OC5CCOCC5)cc4)nc3C2)cnc2c1NCCO2 [Example 94, 7-(8-methyl-2,3-dihydro-1H-pyrido[2,3-b][1,4]oxazin-7-yl)-N-(4-((tetrahydro-2H-pyran-4-yl)oxy)phenyl)-5,6,7,8-tetrahydropyrido[3,4-d]pyrimidin-2-amine]	< 100	–	500 to 1000
Cc1ccncc1N1CCc2cnc(Nc3cnc4c(c3)CN(C)CC4)nc2C1 [Example 118, N-(6-methyl-5,6,7,8-tetrahydro-1,6-naphthyridin-3-yl)-7-(4-methylpyridin-3-yl)-5,6,7,8-tetrahydropyrido[3,4-d]pyrimidin-2-amine]	< 100	> 1000	–
Cc1c(N2CCc3cnc(Nc4ccnc(C5CCOCC5)c4)nc3C2)cnc2c1NCCO2 [Example 76, 7-(8-methyl-2,3-dihydro-1H-pyrido[2,3-b][1,4]oxazin-7-yl)-N-(2-(tetrahydro-2H-pyran-4-yl)pyridin-4-yl)-5,6,7,8-tetrahydropyrido[3,4-d]pyrimidin-2-amine]	< 100	< 500	–
Cc1c(N2CCc3cnc(Nc4ccc(CC(=O)N(C)C)cc4)nc3C2)cnc2c1NCCO2 [Example 189, N,N-dimethyl-2-{4-[(7-{8-methyl-1H,2H,3H-pyrido[2,3-b][1,4]oxazin-7-yl}-5H,6H,7H,8H-pyrido[3,4-d]pyrimidin-2-yl)amino]phenyl}acetamide]	< 100	< 500	–
Cc1c(N2CCc3cnc(Nc4ccc(C5CCN(C)CC5)cc4)nc3C2)cnc2c1NCCO2 [Example 100, 7-(8-methyl-2,3-dihydro-1H-pyrido[2,3-b][1,4]oxazin-7-yl)-N-(4-(1-methylpiperidin-4-yl)phenyl)-5,6,7,8-tetrahydropyrido[3,4-d]pyrimidin-2-amine]	< 100	500 to 1000	–
Cc1c(N2CCc3cnc(Nc4cc5n(n4)CC(=O)N(C(C)C)CC5)cc3C2)cnc2c1NCCO2 [Example 7, 2-[(6-{8-methyl-1H,2H,3H-pyrido[2,3-b][1,4]oxazin-7-yl}-5,6,7,8-tetrahydro-2,6-naphthyridin-3-yl)amino]-6-(propan-2-yl)-4H,5H,6H,7H,8H-pyrazolo[1,5-d][1,4]diazepin-7-one]	< 100	< 500	–
Cc1c(N2CCc3cnc(Nc4ccc([C@H]5CCCS5(=O)=O)cc4)cc3C2)cnc2c1NCCO2 (single isomer, unassigned) [Example 169]	< 100	< 500	–
Cc1c(N2CCc3cnc(Nc4ccc(CS(=O)(=O)C5CC5)cn4)cc3C2)cnc2c1NCCO2 [Example 176, N-{5-[(cyclopropanesulfonyl)methyl]pyridin-2-yl}-6-{8-methyl-1H,2H,3H-pyrido[2,3-b][1,4]oxazin-7-yl}-5,6,7,8-tetrahydro-2,6-naphthyridin-3-amine]	< 100	< 500	–
Cc1cc(Nc2ncc3c(n2)CN(c2cnc4c(c2C)NCCO4)CC3)ccc1NC(=O)CN1CCOCC1 [Example 48, N-{2-methyl-4-[(7-{8-methyl-1H,2H,3H-pyrido[2,3-b][1,4]oxazin-7-yl}-5H,6H,7H,8H-pyrido[3,4-d]pyrimidin-2-yl)amino]phenyl}-2-(morpholin-4-yl)acetamide]	< 100	< 500	–
Cc1c(N2CCc3cnc(Nc4cnc5c(c4)CN(C)CC5)cc3C2)cnc2c1NCCO2 [Example 109, 6-methyl-N-(6-(8-methyl-2,3-dihydro-1H-pyrido[2,3-b][1,4]oxazin-7-yl)-5,6,7,8-tetrahydro-2,6-naphthyridin-3-yl)-5,6,7,8-tetrahydro-1,6-naphthyridin-3-amine]	100 to 1000	> 1000	–
Cc1c(N2CCc3cnc(Nc4ccc(CS(C)(=O)=O)cc4)nc3C2)cnc2nc[nH]c12 [Example 171, N-[4-(methanesulfonylmethyl)phenyl]-7-{7-methyl-1H-imidazo[4,5-b]pyridin-6-yl}-5H,6H,7H,8H-pyrido[3,4-d]pyrimidin-2-amine]	< 100	–	500 to 1000
Cc1cc(Nc2ncc3c(n2)CN(c2cnc4c(c2Cl)NCCO4)CC3)ccc1NC(=O)CN1CCC1 [Example 121, 2-(azetidin-1-yl)-N-(4-((7-(8-chloro-2,3-dihydro-1H-pyrido[2,3-b][1,4]oxazin-7-yl)-5,6,7,8-tetrahydropyrido[3,4-d]pyrimidin-2-yl)amino)-2-methylphenyl)acetamide]	< 100	< 500	–
Cc1c(N2CCc3cnc(Nc4ccc(CS(C)(=O)=O)cc4)nc3C2C)cnc2c1NCCO2 (centres unmarked) [Example 180, N-[4-(methanesulfonylmethyl)phenyl]-8-methyl-7-{8-methyl-1H,2H,3H-pyrido[2,3-b][1,4]oxazin-7-yl}-5H,6H,7H,8H-pyrido[3,4-d]pyrimidin-2-amine]	< 100	< 500	–
Cc1c(N2CCc3cnc(Nc4ccc(C(C)(C)S(C)(=O)=O)nc4)nc3C2)cnc2c1NCCO2 [Example 20, 6-(2-methanesulfonylpropan-2-yl)-N-(7-{8-methyl-1H,2H,3H-pyrido[2,3-b][1,4]oxazin-7-yl}-5H,6H,7H,8H-pyrido[3,4-d]pyrimidin-2-yl)pyridin-3-amine]	< 100	> 1000	–
Cc1cc(Nc2ncc3c(n2)CN(c2cnc4c(c2C)NCCO4)CC3)cnc1CS(C)(=O)=O [Example 21, 6-(methanesulfonylmethyl)-5-methyl-N-(7-{8-methyl-1H,2H,3H-pyrido[2,3-b][1,4]oxazin-7-yl}-5H,6H,7H,8H-pyrido[3,4-d]pyrimidin-2-yl)pyridin-3-amine]	< 100	500 to 1000	–
COC(=O)Nc1ccc(Nc2ncc3c(n2)CN(c2cnc4c(c2C)NCCO4)CC3)cc1 [Example 71, methyl N-{4-[(7-{8-methyl-1H,2H,3H-pyrido[2,3-b][1,4]oxazin-7-yl}-5H,6H,7H,8H-pyrido[3,4-d]pyrimidin-2-yl)amino]phenyl}carbamate]	< 100	< 500	–
CNC(=O)c1ccc(Nc2ncc3c(n2)CN(c2cnc4c(c2C)NCCO4)CC3)cc1F [Example 74, 2-fluoro-N-methyl-4-((7-(8-methyl-2,3-dihydro-1H-pyrido[2,3-b][1,4]oxazin-7-yl)-5,6,7,8-tetrahydropyrido[3,4-d]pyrimidin-2-yl)amino)benzamide]	< 100	< 500	–
Cc1c(N2CCc3cnc(Nc4ccc(Cn5cncn5)cc4)nc3C2)cnc2c1NCCO2 [Example 126, 7-{8-methyl-1H,2H,3H-pyrido[2,3-b][1,4]oxazin-7-yl}-N-{4-[(1H-1,2,4-triazol-1-yl)methyl]phenyl}-5H,6H,7H,8H-pyrido[3,4-d]pyrimidin-2-amine]	< 100	< 500	–
Cc1c(N2CCc3cnc(Nc4ccc(NC(=O)CN5CCOCC5)nc4)cc3C2)cnc2c1NCCO2 [Example 32, N-{5-[(6-{8-methyl-1H,2H,3H-pyrido[2,3-b][1,4]oxazin-7-yl}-5,6,7,8-tetrahydro-2,6-naphthyridin-3-yl)amino]pyridin-2-yl}-2-(morpholin-4-yl)acetamide]	< 100	> 1000	–
Cc1c(N2CCc3cnc(Nc4ccc(CS(=O)(=O)C5CC5)nc4)nc3C2)cnc2c1NCCO2 [Example 40, 6-[(cyclopropanesulfonyl)methyl]-N-(7-{8-methyl-1H,2H,3H-pyrido[2,3-b][1,4]oxazin-7-yl}-5H,6H,7H,8H-pyrido[3,4-d]pyrimidin-2-yl) pyridin-3-amine]	< 100	< 500	–

Source: US20240025922A1, “TETRAHYDROPYRIDO[3,4-d]PYRIMIDINES AS HPK1 INHIBITORS” (Merck Patent GmbH, priority 2022, published 2024)
